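Assay format: 96-well plates, 48-hour exposure. GI50 = concentration required for 50% inhibition of growth.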 The source made the active and inactive calls. Rule as the data show it: active = GI50 up to about 1.1 µM and inactive = higher.
Tests used:
Assay in all cases: growth of human tumour cells (NCI), 48 h
[1] = test system: HT-29
[2] = test system: A549
[3] = test system: OVCAR-8
[4] = test system: KM12
[5] = test system: SR
[6] = test system: 786-0
[7] = test system: SF-268
[8] = test system: U-251
[9] = test system: XF498
[10] = test system: HOP-18
[11] = test system: HL-60
[12] = test system: SNB-78
[13] = test system: SN12C
[14] = test system: TK-10
[15] = test system: SF-539
[16] = test system: RXF 393
[17] = test system: SNB-19
[18] = test system: M19-MEL
[19] = test system: SNB-75
[20] = test system: KM-20L2
[21] = test system: UACC-62
[22] = test system: K562
[23] = test system: M14
[24] = test system: MOLT-4
[25] = test system: HCT-116
[26] = test system: OVCAR-4
[27] = test system: OVCAR-3
[28] = test system: LXFL 529
[29] = test system: NCI-H460
[30] = test system: DMS-114
[31] = test system: OVCAR-5
[32] = test system: NCI-H23
[33] = test system: UO-31
[34] = test system: ACHN
[35] = test system: DLD-1
[36] = test system: A498
[37] = test system: SF-295
[38] = test system: LOX IMVI
[39] = test system: Malme-3M
[40] = test system: SW-620
[41] = test system: UACC-257
[42] = test system: IGROV-1
[43] = test system: CCRF-CEM
[44] = test system: EKVX
[45] = test system: HOP-62
[46] = test system: NCI-H226
[47] = test system: SK-MEL-28
[48] = test system: SK-OV-3
[49] = test system: RPMI-8226
[50] = test system: HCC 2998
[51] = test system: SK-MEL-5
[52] = test system: SK-MEL-2
[53] = test system: HCT-15
[54] = test system: NCI-H522
[55] = test system: DMS-273
[56] = test system: COLO 205
[57] = test system: HOP-92
[58] = test system: CAKI-1

In the case of Cc1cccc2c(O)cc(=O)oc12, the GI50 [1] is reported as > 100 µM (inactive), the GI50 [2] is reported as > 100 µM (inactive) and the GI50 [3] is reported as > 100 µM (inactive). The GI50 [4] was > 100 µM (inactive), the GI50 [5] was > 100 µM (inactive) and the GI50 [6] was > 100 µM (inactive). The GI50 [7] was > 100 µM (inactive), the GI50 [8] was > 100 µM (inactive) and the GI50 [9] was > 100 µM (inactive). For the same molecule, the GI50 [10] was > 100 µM (inactive), the GI50 [11] was > 100 µM (inactive) and the GI50 [12] was > 100 µM (inactive). The GI50 [13] was > 100 µM (inactive), the GI50 [14] was > 100 µM (inactive) and the GI50 [15] was > 100 µM (inactive). The GI50 [16] was > 100 µM (inactive), the GI50 [17] was > 100 µM (inactive) and the GI50 [18] was > 100 µM (inactive). For the same molecule, the GI50 [19] was > 100 µM (inactive), the GI50 [20] was > 100 µM (inactive) and the GI50 [21] was > 100 µM (inactive). For the same molecule, the GI50 [22] was > 100 µM (inactive), the GI50 [23] was > 100 µM (inactive) and the GI50 [24] was > 100 µM (inactive). The GI50 [25] was > 100 µM (inactive), the GI50 [26] was > 100 µM (inactive) and the GI50 [27] was > 100 µM (inactive). The GI50 [28] was > 100 µM (inactive), the GI50 [29] was > 100 µM (inactive) and the GI50 [30] was > 100 µM (inactive). For the same molecule, the GI50 [31] was > 100 µM (inactive), the GI50 [32] was > 100 µM (inactive) and the GI50 [33] was > 100 µM (inactive). For the same molecule, the GI50 [34] was > 100 µM (inactive), the GI50 [35] was > 100 µM (inactive) and the GI50 [36] was > 100 µM (inactive). For the same molecule, the GI50 [37] was > 100 µM (inactive), the GI50 [38] was > 100 µM (inactive) and the GI50 [39] was > 100 µM (inactive). The GI50 [40] was > 100 µM (inactive), the GI50 [41] was > 100 µM (inactive) and the GI50 [42] was > 100 µM (inactive). The GI50 [43] was > 100 µM (inactive), the GI50 [44] was > 100 µM (inactive) and the GI50 [45] was > 100 µM (inactive). The GI50 [46] was > 100 µM (inactive), the GI50 [47] was > 100 µM (inactive) and the GI50 [48] was > 100 µM (inactive). For the same molecule, the GI50 [49] was > 100 µM (inactive).
In the case of COC1CC(OC)C2OC(c3ccccc3)OCC2O1 (stereo unspecified), the GI50 [1] is reported as > 100 µM (inactive), the GI50 [50] is reported as > 100 µM (inactive) and the GI50 [2] is reported as > 100 µM (inactive). The GI50 [3] was > 100 µM (inactive), the GI50 [4] was > 100 µM (inactive) and the GI50 [5] was > 100 µM (inactive). The GI50 [6] was > 100 µM (inactive), the GI50 [8] was > 100 µM (inactive) and the GI50 [10] was > 100 µM (inactive). The GI50 [11] was > 100 µM (inactive), the GI50 [12] was > 100 µM (inactive) and the GI50 [13] was > 100 µM (inactive). The GI50 [14] was > 100 µM (inactive), the GI50 [15] was > 100 µM (inactive) and the GI50 [16] was > 100 µM (inactive). The GI50 [18] was > 100 µM (inactive), the GI50 [19] was > 100 µM (inactive) and the GI50 [20] was > 100 µM (inactive). For the same molecule, the GI50 [21] was > 100 µM (inactive), the GI50 [22] was > 100 µM (inactive) and the GI50 [51] was > 100 µM (inactive). The GI50 [52] was > 100 µM (inactive), the GI50 [23] was > 100 µM (inactive) and the GI50 [24] was > 100 µM (inactive). For the same molecule, the GI50 [25] was > 100 µM (inactive), the GI50 [53] was over 100 µM and the GI50 [27] was > 100 µM (inactive). For the same molecule, the GI50 [28] was > 100 µM (inactive), the GI50 [29] was > 100 µM (inactive) and the GI50 [31] was > 100 µM (inactive). For the same molecule, the GI50 [32] was > 100 µM (inactive), the GI50 [33] was > 100 µM (inactive) and the GI50 [34] was > 100 µM (inactive). For the same molecule, the GI50 [35] was > 100 µM (inactive), the GI50 [37] was > 100 µM (inactive) and the GI50 [38] was > 100 µM (inactive). For the same molecule, the GI50 [39] was > 100 µM (inactive), the GI50 [40] was > 100 µM (inactive) and the GI50 [41] was > 100 µM (inactive). For the same molecule, the GI50 [42] was > 100 µM (inactive), the GI50 [43] was > 100 µM (inactive) and the GI50 [44] was > 100 µM (inactive). For the same molecule, the GI50 [45] was > 100 µM (inactive), the GI50 [47] was > 100 µM (inactive) and the GI50 [54] was > 100 µM (inactive). For the same molecule, the GI50 [48] was > 100 µM (inactive).
With FC(F)(F)c1ccc2nc(Nc3ccc(Cl)c(Cl)c3)c(-c3ccccc3)nc2c1 the GI50 [1] was 26 µM (inactive), the GI50 [50] was 86.7 µM (inactive) and the GI50 [2] was 17.1 µM (inactive). For the same molecule, the GI50 [3] was 21 µM (inactive), the GI50 [5] was 6.64 µM (inactive) and the GI50 [6] was 12.1 µM (inactive). For the same molecule, the GI50 [7] was 14.6 µM (inactive), the GI50 [8] was 7.16 µM (inactive) and the GI50 [9] was 31.2 µM (inactive). The GI50 [10] was > 100 µM (inactive), the GI50 [11] was 8.57 µM (inactive) and the GI50 [12] was 27.4 µM (inactive). For the same molecule, the GI50 [13] was 75.2 µM (inactive), the GI50 [14] was 73.1 µM (inactive) and the GI50 [15] was 19.4 µM (inactive). The GI50 [16] was 39.1 µM (inactive), the GI50 [17] was 74 µM (inactive) and the GI50 [18] was 48.5 µM (inactive). For the same molecule, the GI50 [20] was 55.7 µM (inactive), the GI50 [52] was > 100 µM (inactive) and the GI50 [24] was 6.81 µM (inactive). The GI50 [25] was 7.66 µM (inactive), the GI50 [53] was 0.659 µM and the GI50 [55] was 6.55 µM (inactive). The GI50 [27] was 37.5 µM (inactive), the GI50 [28] was 8.3 µM (inactive) and the GI50 [29] was 7.05 µM (inactive). The GI50 [31] was > 100 µM (inactive), the GI50 [32] was > 100 µM (inactive) and the GI50 [33] was > 100 µM (inactive). The GI50 [34] was 40.3 µM (inactive), the GI50 [56] was 61.8 µM (inactive) and the GI50 [37] was 18.7 µM (inactive). The GI50 [38] was 13.8 µM (inactive), the GI50 [39] was > 100 µM (inactive) and the GI50 [40] was 33.4 µM (inactive). The GI50 [41] was 85.5 µM (inactive), the GI50 [43] was 30.5 µM (inactive) and the GI50 [44] was > 100 µM (inactive). The GI50 [45] was > 100 µM (inactive), the GI50 [46] was > 100 µM (inactive) and the GI50 [47] was 82.8 µM (inactive). The GI50 [49] was > 100 µM (inactive) and the GI50 [57] was 46.7 µM (inactive).
In the case of COc1ccc2c(c[n+](C)c3c4cc5c(cc4ccc23)OCO5)c1OC [CHELERYTHRINE CHLORIDE], the GI50 [5] is reported as 1.28 µM (inactive), the GI50 [58] is reported as 1.91 µM (inactive) and the GI50 [10] is reported as 1.8 µM (inactive). For the same molecule, the GI50 [12] was 2 µM (inactive), the GI50 [18] was 1.6 µM (inactive) and the GI50 [20] was 1.74 µM (inactive). For the same molecule, the GI50 [52] was 2.04 µM (inactive), the GI50 [55] was 2.04 µM (inactive) and the GI50 [28] was 1.73 µM (inactive). For the same molecule, the GI50 [30] was 2.18 µM (inactive), the GI50 [35] was 1.7 µM (inactive) and the GI50 [54] was 2.14 µM (inactive).

From ChEMBL document CHEMBL1201862, “PubChem BioAssay data set” (2004)
